Results reported in US8759342B2, “Benzo[1,4]oxazin-3-one, benzo[1,4]thiazin-3-one and quinolin-2-one urotensin II receptor antagonists” (Janssen Pharmaceutica NV, priority 2006, dated 2014).
Each block holds one compound with its values, some of them ahead of it.

Tests used:
[1] = target: T1, Human UII receptors (Homo sapiens, UniProt Q9UKP6); assay: Human radioligand binding assay, (125I)-U-II on HSMM; conditions: 0.150 nM (125I)-U-II, intact Human Skeletal Muscle Myoblasts, 3 hrs, 25° C.; read-out: Ki
T1 construct: host or cells: Human Skeletal Muscle Myoblasts (HSMM), intact adherent cells
T1 sequence (Q9UKP6 1-389): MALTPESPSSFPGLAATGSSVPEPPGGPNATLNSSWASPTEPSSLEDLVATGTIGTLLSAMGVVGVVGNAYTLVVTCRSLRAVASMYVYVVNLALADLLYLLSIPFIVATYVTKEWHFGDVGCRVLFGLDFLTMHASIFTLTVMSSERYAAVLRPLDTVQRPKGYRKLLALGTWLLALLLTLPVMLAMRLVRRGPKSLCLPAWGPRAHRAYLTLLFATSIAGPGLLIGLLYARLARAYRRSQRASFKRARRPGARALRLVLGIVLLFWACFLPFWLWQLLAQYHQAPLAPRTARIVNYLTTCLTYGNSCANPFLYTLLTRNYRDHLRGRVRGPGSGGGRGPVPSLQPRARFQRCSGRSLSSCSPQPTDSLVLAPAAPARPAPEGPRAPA
Experimental: Human Skeletal Muscle Myoblasts (HSMM) were obtained from Cambrex, and were cultured according to manufacturer's instruction. Cell viability was examined by trypan blue exclusion. Cells at less than 4 passages were used in all studies. […] The binding medium used was Dulbecco's modified Eagle's medium (DMEM) containing 2 mg/ml BSA and 25 mM HEPES (pH 7.4). […] The cells were washed 4× with the binding medium and solubilized in 1% SDS and 0.5 N NaOH. Radioactivity was quantified by gamma counting.

[2] = target: T2, rat GPR14 (U-II receptor) (Rattus norvegicus, UniProt P49684); assay: Calcium flux assay (FLIPR); type: cell-based; conditions: Inhibition of acetyl-cyclic[Cys-Phe-Trp-Lys-(2-Nal)-Cys]-NH2 (1 nM) induced Ca2+ mobilization (FLIPR) in CHO cells transfected with rat UII receptor; 5 min incubation
T2 construct: expressed in transfected cells
T2 sequence (P49684 1-386): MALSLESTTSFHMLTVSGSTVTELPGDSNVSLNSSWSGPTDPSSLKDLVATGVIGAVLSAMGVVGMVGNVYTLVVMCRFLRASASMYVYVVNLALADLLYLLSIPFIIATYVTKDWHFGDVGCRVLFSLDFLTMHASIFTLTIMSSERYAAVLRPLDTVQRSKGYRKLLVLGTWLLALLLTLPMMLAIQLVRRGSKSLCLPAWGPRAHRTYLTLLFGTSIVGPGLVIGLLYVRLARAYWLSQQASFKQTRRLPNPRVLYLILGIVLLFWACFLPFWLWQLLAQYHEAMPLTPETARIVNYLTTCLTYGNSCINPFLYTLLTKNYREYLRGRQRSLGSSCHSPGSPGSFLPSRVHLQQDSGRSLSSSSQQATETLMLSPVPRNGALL
Excerpt: To derive these cells, the complete coding sequence of rat […] was amplified by nested PCR from rat heart marathon-Ready cDNA. […] The PCR products were cloned into pcDNA3 (Invitrogen) digested with EcoR I and Xba I. Clones containing rat U-II receptor were verified by complete sequencing of the U-II receptor insert to ensure a lack of PCR-introduced errors. The constructed vector was transfected into CHO cells by using lipofectamine (GIBCO BRL). CHO cells with high expression of rat U-II receptor were selected and established as stable cell lines by using G418. CHO cells were seeded at 25,000 cells per well into 96-well, black-wall, clear-bottom microtiter plates 24 hrs before assay. Cells in culture media (DMEM/F12 containing 15 mM HEPES, L-glutamine, pyridoxine hydrochloride; 10% fetal bovine serum; 1 mg/mL G418 sulfate; antibiotic-antimycotic; pH 7.4) were loaded with proprietary dye, from the FLIPR Calcium Assay Kit (Molecular Devices), prepared in assay buffer (Hanks Balanced Salts Solution, 20 mM HEPES, 0.1% BSA, 2.5 mM probenecid, pH 7.4), and incubated for 1 hr at 37° C. Calcium mobilization determinations were performed at room temperature (23° C.).

Structure (SMILES): CC(C)(C)OC(=O)NCCCCCNC(=O)c1cc(Cl)ccc1C1CCN(CCN2C(=O)COc3ccccc32)CC1 [Cpd 70, [5-(5-chloro-2-{1-[2-(3-oxo-2,3-dihydro-benzo[1,4]oxazin-4-yl)-ethyl]-piperidin-4-yl}-benzoylamino)-pentyl]-carbamic acid tert-butyl ester]
Ki [1]: 25 nM
IC50 [2]: 32 nM

Structure (SMILES): CC(C)(C)OC(=O)N1CCN(CCNC(=O)c2ccccc2C2CC3CCC(C2)N3CCN2C(=O)COc3ccccc32)CC1 (stereo not shown) [Cpd 99, 4-[2-(2-{8-[2-(3-oxo-2,3-dihydro-benzo[1,4]oxazin-4-yl)-ethyl]-8-aza-bicyclo[3.2.1]oct-3-yl}-benzoylamino)-ethyl]-piperazine-1-carboxylic acid tert-butyl ester]
Ki [1]: 1400 nM
IC50 [2]: 1100 nM

Structure (SMILES): O=C(NCCc1ccc(Br)cc1)c1ccccc1C1CCN(CCN2C(=O)COc3ccccc32)CC1 [Cpd 34, N-[2-(4-bromo-phenyl)-ethyl]-2-{1-[2-(3-oxo-2,3-dihydro-benzo[1,4]oxazin-4-yl)-ethyl]-piperidin-4-yl}-benzamide]
Ki [1]: 620 nM
IC50 [2]: 3000 nM

Structure (SMILES): O=C(NCCc1c[nH]c2ccccc12)c1ccccc1C1CCN(CCN2C(=O)COc3ccccc32)CC1 [Cpd 26, N-[2-(1H-indol-3-yl)-ethyl]-2-{1-[2-(3-oxo-2,3-dihydro-benzo[1,4]oxazin-4-yl)-ethyl]-piperidin-4-yl}-benzamide]
Ki [1]: 750 nM
IC50 [2]: 2000 nM

Structure (SMILES): CC(C)(C)OC(=O)NCCCCCNC(=O)c1cc(Cl)ccc1C1CC2CCC(C1)N2CCN1C(=O)COc2ccccc21 (stereo not shown) [Cpd 100, [5-(5-chloro-2-{8-[2-(3-oxo-2,3-dihydro-benzo[1,4]oxazin-4-yl)-ethyl]-8-aza-bicyclo[3.2.1]oct-3-yl}-benzoylamino)-pentyl]-carbamic acid tert-butyl ester]
Ki [1]: 1200 nM
IC50 [2]: 450 nM

Ki [1]: 54 nM
IC50 [2]: 400 nM
Structure (SMILES): O=C(NCC1CCN(C(=O)OCc2ccccc2)CC1)c1cc(Cl)ccc1C1CCN(CCN2C(=O)COc3ccccc32)CC1 [Cpd 63, 4-[(5-chloro-2-{1-[2-(3-oxo-2,3-dihydro-benzo[1,4]oxazin-4-yl)-ethyl]-piperidin-4-yl}-benzoylamino)-methyl]-piperidine-1-carboxylic acid benzyl ester]

Ki [1]: 34 nM
IC50 [2]: 40 nM
Structure (SMILES): O=C(NCCCCCNC(=O)c1cc(Cl)ccc1C1CCN(CCN2C(=O)COc3ccccc32)CC1)OCc1ccccc1 [Cpd 75, [5-(5-chloro-2-{1-[2-(3-oxo-2,3-dihydro-benzo[1,4]oxazin-4-yl)-ethyl]-piperidin-4-yl}-benzoylamino)-pentyl]-carbamic acid benzyl ester]

Structure (SMILES): CC(C)(C)OC(=O)N1CCN(CCNC(=O)c2cc(Cl)ccc2C2=CC3CCC(C2)N3CCN2C(=O)COc3ccccc32)CC1 (stereo not shown) [Cpd 94, 4-[2-(5-chloro-2-{8-[2-(3-oxo-2,3-dihydro-benzo[1,4]oxazin-4-yl)-ethyl]-8-aza-bicyclo[3.2.1]oct-2-en-3-yl}-benzoylamino)-ethyl]-piperazine-1-carboxylic acid tert-butyl ester]
Ki [1]: 1900 nM
IC50 [2]: 290 nM

Structure (SMILES): CC(=O)NCCNC(=O)c1ccccc1C1CCN(CCN2C(=O)COc3ccccc32)CC1 [Cpd 49, N-(2-acetylamino-ethyl)-2-{1-[2-(3-oxo-2,3-dihydro-benzo[1,4]oxazin-4-yl)-ethyl]-piperidin-4-yl}-benzamide]
IC50 [2]: 38000 nM

Structure (SMILES): O=C(NCCc1c[nH]c2ccccc12)c1cc(Cl)ccc1C1CCN(CCN2C(=O)COc3ccccc32)CC1 [Cpd 62, 5-chloro-N-[2-(1H-indol-3-yl)-ethyl]-2-{1-[2-(3-oxo-2,3-dihydro-benzo[1,4]oxazin-4-yl)-ethyl]-piperidin-4-yl}-benzamide]
IC50 [2]: 900 nM

Structure (SMILES): CC(Cc1ccc(Cl)cc1)NC(=O)c1ccccc1C1CCN(CCN2C(=O)COc3ccccc32)CC1 (stereo not shown) [Cpd 12, N-[2-(4-chloro-phenyl)-1-methyl-ethyl]-2-{1-[2-(3-oxo-2,3-dihydro-benzo[1,4]oxazin-4-yl)-ethyl]-piperidin-4-yl}-benzamide]
IC50 [2]: 10000 nM

Structure (SMILES): Cc1ccc(C2CCN(CCN3C(=O)COc4ccccc43)CC2)cc1 [Cpd 90, 4-[2-(4-p-tolyl-piperidin-1-yl)-ethyl]-4H-benzo[1,4]oxazin-3-one]
IC50 [2]: 15000 nM

Structure (SMILES): COc1ccc(C2CCN(CCN3C(=O)COc4ccccc43)CC2)cc1 [Cpd 87, 4-{2-[4-(4-methoxy-phenyl)-piperidin-1-yl]-ethyl}-4H-benzo[1,4]oxazin-3-one]
IC50 [2]: 47000 nM

Structure (SMILES): O=C(NCCc1ccc(F)c(F)c1)c1ccccc1C1CCN(CCN2C(=O)COc3ccccc32)CC1 [Cpd 19, N-[2-(3,4-difluoro-phenyl)-ethyl]-2-{1-[2-(3-oxo-2,3-dihydro-benzo[1,4]oxazin-4-yl)-ethyl]-piperidin-4-yl}-benzamide]
IC50 [2]: 6000 nM

Structure (SMILES): O=C(NCCc1cc(F)ccc1F)c1ccccc1C1CCN(CCN2C(=O)COc3ccccc32)CC1 [Cpd 22, N-[2-(2,5-difluoro-phenyl)-ethyl]-2-{1-[2-(3-oxo-2,3-dihydro-benzo[1,4]oxazin-4-yl)-ethyl]-piperidin-4-yl}-benzamide]
IC50 [2]: 13000 nM

Structure (SMILES): O=C1COc2ccccc2N1CCN1CCC(C(=O)NCc2ccccc2)(c2ccccc2)CC1 [Cpd 104, 1-[2-(3-oxo-2,3-dihydro-benzo[1,4]oxazin-4-yl)-ethyl]-4-phenyl-piperidine-4-carboxylic acid benzylamide]
IC50 [2]: 26000 nM

Structure (SMILES): O=C1COc2ccccc2N1CCN1CCC(C(=O)NCCc2ccccc2)(c2ccccc2)CC1 [Cpd 105, 1-[2-(3-oxo-2,3-dihydro-benzo[1,4]oxazin-4-yl)-ethyl]-4-phenyl-piperidine-4-carboxylic acid phenethyl-amide]
IC50 [2]: 7000 nM

Structure (SMILES): O=C(NCCc1ccc(Cl)cc1Cl)c1ccccc1C1CCN(CCN2C(=O)COc3ccccc32)CC1 [Cpd 7, N-[2-(2,4-dichloro-phenyl)-ethyl]-2-{1-[2-(3-oxo-2,3-dihydro-benzo[1,4]oxazin-4-yl)-ethyl]-piperidin-4-yl}-benzamide]
IC50 [2]: 19000 nM

Structure (SMILES): O=C(NCc1cccs1)c1ccccc1C1CCN(CCN2C(=O)COc3ccccc32)CC1 [Cpd 46, 2-{1-[2-(3-oxo-2,3-dihydro-benzo[1,4]oxazin-4-yl)-ethyl]-piperidin-4-yl}-N-thiophen-2-ylmethyl-benzamide]
IC50 [2]: 6000 nM

Structure (SMILES): COc1ccc(OC)c(CCNC(=O)c2ccccc2C2CCN(CCN3C(=O)COc4ccccc43)CC2)c1 [Cpd 13, N-[2-(2,5-dimethoxy-phenyl)-ethyl]-2-{1-[2-(3-oxo-2,3-dihydro-benzo[1,4]oxazin-4-yl)-ethyl]-piperidin-4-yl}-benzamide]
IC50 [2]: 8000 nM

Structure (SMILES): COc1cc(CCNC(=O)c2ccccc2C2CCN(CCN3C(=O)COc4ccccc43)CC2)cc(OC)c1 [Cpd 17, N-[2-(3,5-dimethoxy-phenyl)-ethyl]-2-{1-[2-(3-oxo-2,3-dihydro-benzo[1,4]oxazin-4-yl)-ethyl]-piperidin-4-yl}-benzamide]
IC50 [2]: 7000 nM

Structure (SMILES): O=C(NCc1ccccn1)c1ccccc1C1CCN(CCN2C(=O)COc3ccccc32)CC1 [Cpd 41, 2-{1-[2-(3-oxo-2,3-dihydro-benzo[1,4]oxazin-4-yl)-ethyl]-piperidin-4-yl}-N-pyridin-2-ylmethyl-benzamide]
IC50 [2]: 21000 nM

Structure (SMILES): O=C(NCCc1ccccc1Cl)c1ccccc1C1CCN(CCN2C(=O)COc3ccccc32)CC1 [Cpd 8, N-[2-(2-chloro-phenyl)-ethyl]-2-{1-[2-(3-oxo-2,3-dihydro-benzo[1,4]oxazin-4-yl)-ethyl]-piperidin-4-yl}-benzamide]
IC50 [2]: 14000 nM
